The results in this text go back to patent publication US9580432B2, “Fused pyrimidine compound or salt thereof” (TAIHO PHARMACEUTICAL CO., LTD., priority 2013, dated 2017).

Where only a bound is given, the exact number is not on record here.

In test [1] the target is purified recombinant human BTK protein (Homo sapiens (Human), UniProt Q06187). The test is described as follows: Measurement of BTK inhibitory activity (in vitro). As to conditions: FL-PEPTIDE 2 substrate 1 μM, ATP 45 μM, 40 minutes at 25° C. The test is classed as biochemical. An excerpt:
With regard to the setting of the conditions for a method for measuring the inhibitory activity of a compound against BTK kinase activity in vitro, it is described in the consumable reagent supplies price list for LabChip (registered trademark) series of PerkinElmer, Inc. that FL-PEPTIDE 2 corresponds to a substrate peptide for the measurement of BTK kinase activity. Therefore, FL-PEPTIDE 2 was used as a substrate. The purified recombinant human BTK protein used in the test was purchased from Carna Biosciences, Inc.
With regard to the measurement of the inhibitory activity of the compounds, firstly, the compounds of the present invention were diluted stepwise with dimethyl sulfoxide (DMSO). Subsequently, BTK protein, a substrate peptide (final concentration was 1 μM), magnesium chloride (final concentration was 10 mM), ATP (final concentration was 45 μM), and a DMSO solution of the compounds of the present invention (final concentration of DMSO was 5%) were added to a buffer solution for kinase reaction (20 mM HEPES (pH 7.5), 2 mM dithiotheitol, 0.01% Triton X-100), and after the solution was incubated for 40 minutes at 25° C., a kinase reaction was carried out. The reaction was terminated by adding EDTA thereto in order to obtain a final concentration of 30 mM. Finally, a substrate peptide that was not phosphorylated (S) and a phosphorylated peptide (P) were separated and detected by microchannel capillary electrophoresis using a LabChip EZ Reader II (PerkinElmer, Inc.).

The test system of test [2] is A431 cells / TMD8 cells. In words: Proliferation inhibitory activity against cell lines expressing BTK and EGFR (in vitro), comparison of selectivity. The test is classed as cell-based, human. To be noted: ratio from GI50 (nM), 3 days culture, CELLTITER GLO. An excerpt: TMD8 cells, which are of a diffuse large B-cell lymphoma cell line expressing BTK, were suspended in RPMI1640 medium (manufactured by Life Technologies Corp.) containing 10% fetal bovine serum. A431 cells, which are of an EGFR-overexpressing, highly activated human epidermoid carcinoma cell line, were suspended in DMEM, high glucose medium (manufactured by Life Technologies Corp.) containing 10% fetal bovine serum. The cell suspensions were inoculated into each well of 384-well flat-bottomed microplates, and the cells were cultured for 1 day at 37° C. in an incubator containing 5% carbon dioxide gas. […] A DMSO solution of the test compounds was diluted with the medium used in the suspension of the each cells, and this was added to each of the wells of the cell culture plates such that the final concentration of DMSO would be 0.2%. The cells were further cultured for 3 days at 37° C. in an incubator containing 5% carbon dioxide gas. […] Proliferation inhibition ratio (%)=(C−T)/(C−C0)×100
T: Luminescence intensity of a well in which the test compound was added
C: Luminescence intensity of a well in which the test compound was not added
C0: Luminescence intensity of a well measured before the addition of the test compound
When a comparison is made between the cell proliferation inhibitory activity against A431 cells that depends on the EGFR proliferation signaling and the cell proliferation inhibitory activity against TMD8 cells that depends on the BTK proliferation signaling, the influence of the respective kinases at a cellular level is able to be evaluated. That is, when the “A431 cell proliferation inhibition ratio/TMD8 cell proliferation inhibition ratio” is calculated, it is contemplated that as the value of the ratio is larger, the selectivity to BTK over EGFR in the cells is higher.

The test system of test [3] is purified recombinant human EGFR protein / BTK. The test is described as follows: BTK inhibition selectivity compared with EGFR kinase inhibitory activity (in vitro). The test is classed as biochemical. As to conditions: EGFR assay ATP 1.5 μM. On the procedure: 1) Measurement of BTK Inhibitory Activity
2) Measurement of EGFR Inhibitory Activity
Therefore, a biotinated peptide (biotin-[…]) was produced by referring to the amino acid sequence of the peptide. The purified recombinant human EGFR protein used in the test was purchased from Carna Biosciences, Inc.
With regard to the measurement of the inhibitory activity of the compounds, firstly, the compounds of the present invention were diluted stepwise with dimethyl sulfoxide (DMSO). […] The reaction was terminated by adding EDTA thereto in order to obtain a final concentration of 24 mM. Subsequently, a detection liquid containing Eu-labeled anti-phosphorylated tyrosine antibody PT66 (PerkinElmer, Inc.) and […] APC-SA (PerkinElmer, Inc.) was added thereto, and the system was left to stand for 2 hours or longer at room temperature.
3) BTK Inhibition Selectivity

purified recombinant human BTK protein, sequence (Q06187 whole entry): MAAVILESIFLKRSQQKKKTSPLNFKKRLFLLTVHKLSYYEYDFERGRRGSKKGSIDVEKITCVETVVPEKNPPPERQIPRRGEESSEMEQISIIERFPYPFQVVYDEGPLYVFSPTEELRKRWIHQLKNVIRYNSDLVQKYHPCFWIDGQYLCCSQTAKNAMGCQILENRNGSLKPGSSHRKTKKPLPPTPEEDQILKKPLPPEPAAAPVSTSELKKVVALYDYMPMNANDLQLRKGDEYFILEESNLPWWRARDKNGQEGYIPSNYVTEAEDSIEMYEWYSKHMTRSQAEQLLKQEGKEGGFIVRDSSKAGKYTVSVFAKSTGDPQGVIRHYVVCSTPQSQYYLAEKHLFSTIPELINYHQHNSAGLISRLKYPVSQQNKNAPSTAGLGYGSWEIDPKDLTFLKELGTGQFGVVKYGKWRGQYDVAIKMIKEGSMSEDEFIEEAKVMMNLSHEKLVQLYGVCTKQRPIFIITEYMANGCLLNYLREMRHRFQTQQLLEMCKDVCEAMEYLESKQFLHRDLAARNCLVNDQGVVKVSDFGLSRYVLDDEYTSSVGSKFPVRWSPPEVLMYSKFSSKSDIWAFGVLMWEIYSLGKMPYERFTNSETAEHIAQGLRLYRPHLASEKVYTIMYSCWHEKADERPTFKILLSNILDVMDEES

The term IC50 denotes the concentration that gives 50% inhibition. With `C=CC(=O)N1CCC[C@@H](n2nc(C(=O)Nc3nc4c(C)cccc4o3)c3c(N)ncnc32)C1` [Example 10, (R)-1-(1-acryloylpiperidin-3-yl)-4-amino-N-(4-methylbenzo[d]oxazol-2-yl)-1H-pyrazolo[3,4-d]pyrimidine-3-carboxamide], the IC50 in test [1] was found to be 2.38 nM. Besides, the “A431 cell proliferation inhibition ratio/TMD8 cell proliferation inhibitio ratio” value in test [2] is given as 5860.5.
On to `Nc1ncnc2c1c(C(=O)Nc1nc3cc(-c4ccccc4)ccc3o1)cn2[C@@H]1CCN(C(=O)/C=C/CN2CCCC2)C1` [Example 60, (R,E)-4-amino-N-(5-phenylbenzo[d]oxazol-2-yl)-7-(1-(4-(pyrrolidin-1-yl)but-2-enoyl)pyrrolidin-3-yl) 7H-pyrrolo[2,3-d]pyrimidine-5-carboxamide], for which, in test [1], the IC50 is 1.88 nM. Besides, in test [3], the “EGFR inhibitory activity IC50 value (nM)/BTK inhibitory activity IC50 value (nM)” value (from here on “EGFR inhibitory activity IC50 value”) is reported as 32.4.
The corresponding values for `Nc1ncnc2c1c(C(=O)Nc1nc3cc(Cl)ccc3o1)nn2[C@@H]1CCN(C(=O)/C=C/CN2CCCC2)C1` [Example 36, (R,E)-4-amino-N-(5-chlorobenzo[d]oxazol-2-yl)-1-(1-(4-(pyrrolidin-1-yl)but-2-enoyl)pyrrolidin-3-yl)-1H-pyrazolo[3,4-d]pyrimidine-3-carboxamide] are 0.867 nM and 59.8.
Regarding `C=CC(=O)N1CC(n2nc(C(=O)Nc3nc4cc(F)ccc4o3)c3c(N)ncnc32)C1` [Example 79, 1-(1-acryloylazetidin-3-yl)-4-amino-N-(5-fluorobenzo[d]oxazol-2-yl)-1H-pyrazolo[3,4-d]pyrimidine-3-carboxamide], in test [3], the “EGFR inhibitory activity IC50 value” value is reported as 20.6.
On to “(E)-4-amino-N-(5-chlorobenzo[d]oxazol-2-yl)-7-(1-(4-(dimethylamino)but-2-enoyl)azetidin-3-yl) 7H-pyrrolo[2,3-d]pyrimidine-5-carboxamide [Example 47]”, for which the IC50 in test [1] is 7.34 nM. Besides, the “EGFR inhibitory activity IC50 value” value in test [3] worked out at 20.4.
As to `C=CC(=O)N1CC[C@@H](n2nc(C(=O)Nc3nc4cc(-c5cccs5)ccc4o3)c3c(N)ncnc32)C1` [Example 28, (R)-1-(1-acryloylpyrrolidin-3-yl)-4-amino-N-(5-(thiophen-2-yl)benzo[d]oxazol-2-yl)-1H-pyrazolo[3,4-d]pyrimidine-3-carboxamide], in test [1], the IC50 turned out to be 0.559 nM. Moreover, in test [2], the “A431 cell proliferation inhibition ratio/TMD8 cell proliferation inhibitio ratio” value is reported as 2040.3.
In the case of `C=CC(=O)N1CC[C@@H](n2nc(C(=O)Nc3nc4cc(Cl)ccc4o3)c3c(N)ncnc32)C1` [Example 24, (R)-1-(1-acryloylpyrrolidin-3-yl)-4-amino-N-(5-chlorobenzo[d]oxazol-2-yl)-1H-pyrazolo[3,4-d]pyrimidine-3-carboxamide], in test [1], the 50% inhibitory concentration (IC50) stood at 0.591 nM. In addition, the “A431 cell proliferation inhibition ratio/TMD8 cell proliferation inhibitio ratio” value in test [2] was 3266.5.
The corresponding values for `C=CC(=O)N1CCC[C@@H](n2nc(C(=O)Nc3nc4cc(C)c(C)cc4o3)c3c(N)ncnc32)C1` [Example 23, (R)-1-(1-acryloylpiperidin-3-yl)-4-amino-N-(5,6-dimethylbenzo[d]oxazol-2-yl)-1H-pyrazolo[3,4-d]pyrimidine-3-carboxamide] are 1.58 nM and >10680.
With `CN(C)C/C=C/C(=O)N1CC[C@H](n2nc(C(=O)Nc3nc4ccccc4o3)c3c(N)ncnc32)C1` [Example 73, (S,E)-4-amino-N-(benzo[d]oxazol-2-yl)-1-(1-(4-(dimethylamino)but-2-enoyl)pyrrolidin-3-yl)-1H-pyrazolo[3,4-d]pyrimidine-3-carboxamide], the IC50 in test [1] came out at 259 nM. The “EGFR inhibitory activity IC50 value” value in test [3] was determined as 11.2.
Consider `C=CC(=O)N1CC[C@@H](n2cc(C(=O)Nc3nc4cc(Cl)ccc4o3)c3c(N)ncnc32)C1` [Example 48, (R)-7-(1-acryloylpyrrolidin-3-yl)-4-amino-N-(5-chlorobenzo[d]oxazol-2-yl)-7H-pyrrolo[2,3-d]pyrimidine-5-carboxamide], for which the IC50 in test [1] was determined as 0.836 nM. The “A431 cell proliferation inhibition ratio/TMD8 cell proliferation inhibitio ratio” value in test [2] is on record as 2496.4.
For the compound `CC(C)=CC(=O)N1CC[C@@H](n2nc(C(=O)Nc3nc4cc(Cl)ccc4o3)c3c(N)ncnc32)C1` [Example 26, (R,E)-4-amino-N-(5-chlorobenzo[d]oxazol-2-yl)-1-(1-(3-methylbut-2-enoyl)pyrrolidin-3-yl)-1H-pyrazolo[3,4-d]pyrimidine-3-carboxamide], in test [1], the IC50 was found to be 2.79 nM. Besides, in test [3], the “EGFR inhibitory activity IC50 value” value is recorded as 642.8.
Consider `C=CC(=O)N1CC[C@@H](n2nc(C(=O)Nc3nc4cc(C)ccc4o3)c3c(N)ncnc32)C1` [Example 29, (R)-1-(1-acryloylpyrrolidin-3-yl)-4-amino-N-(5-methylbenzo[d]oxazol-2-yl)-1H-pyrazolo[3,4-d]pyrimidine-3-carboxamide], for which the IC50 in test [1] came to 0.485 nM. Also, the “A431 cell proliferation inhibition ratio/TMD8 cell proliferation inhibitio ratio” value in test [2] was 1243.4.
As to `C=CC(=O)N1CCC[C@@H](n2nc(C(=O)Nc3nc4cc(Cl)ccc4o3)c3c(N)ncnc32)C1` [Example 1, (R)-1-(1-acryloylpiperidin-3-yl)-4-amino-N-(5-chlorobenzo[d]oxazol-2-yl)-1H-pyrazolo[3,4-d]pyrimidine-3-carboxamide], in test [1], the IC50 was found to be 0.415 nM. Further, in test [2], the “A431 cell proliferation inhibition ratio/TMD8 cell proliferation inhibitio ratio” value amounted to 1062.9.
The matching figures for `C=CC(=O)N1CCC[C@@H](n2nc(C(=O)Nc3nc4cc(Br)ccc4o3)c3c(N)ncnc32)C1` [Example 2, (R)-1-(1-acryloylpiperidin-3-yl)-4-amino-N-(5-bromobenzo[d]oxazol-2-yl)-1H-pyrazolo[3,4-d]pyrimidine-3-carboxamide]: 0.464 nM and >1033.6.
The corresponding values for `C=CC(=O)N1CCC(Cn2nc(C(=O)Nc3nc4ccccc4o3)c3c(N)ncnc32)C1` (stereo not drawn) [Example 66, 1-((1-acryloylpyrrolidin-3-yl)methyl)-4-amino-N-(benzo[d]oxazol-2-yl)-1H-pyrazolo[3,4-d]pyrimidine-3-carboxamide] are 17 nM and >1205.7.
Consider `C=CC(=O)N1CC(n2cc(C(=O)Nc3nc4cc(Cl)ccc4o3)c3c(N)ncnc32)C1` [Example 46, 7-(1-acryloylazetidin-3-yl)-4-amino-N-(5-chlorobenzo[d]oxazol-2-yl)-7H-pyrrolo[2,3-d]pyrimidine-5-carboxamide], for which, in test [1], the half-inhibitory concentration (IC50) came to 3.27 nM. Moreover, the “A431 cell proliferation inhibition ratio/TMD8 cell proliferation inhibitio ratio” value in test [2] was found to be 7662.2.
Take `C=CC(=O)NCCCn1nc(C(=O)Nc2nc3ccccc3o2)c2c(N)ncnc21` [Example 85, 1-(3-acrylamidopropyl)-4-amino-N-(benzo[d]oxazol-2-yl)-1H-pyrazolo[3,4-d]pyrimidine-3-carboxamide]: the “EGFR inhibitory activity IC50 value” value in test [3] was 11.0.
For `C=CC(=O)N1CC[C@@H](n2nc(C(=O)Nc3nc4cc(OC)ccc4o3)c3c(N)ncnc32)C1` [Example 38, (R)-1-(1-acryloylpyrrolidin-3-yl)-4-amino-N-(5-methoxybenzo[d]oxazol-2-yl)-1H-pyrazolo[3,4-d]pyrimidine-3-carboxamide], in test [2], the “A431 cell proliferation inhibition ratio/TMD8 cell proliferation inhibitio ratio” value was 2868.1.
